Values of other authors as cited in patent US10898463B2, “High-strength oral cannabinoid dosage forms” (ICDPHARMA LTD, priority 2016, dated 2021).

Conditions: octanol/water

| Molecule | LogP |
| --- | --- |
| C=CCc1ccc(O)c(OC)c1 [Eugenol] | 2.66 |
| Terpinene | 4.5 |
| CC1=CCC2C(C1)C2(C)C (stereo not shown) [Carene] | 4.32 |
| C=CC(C)(O)CCC=C(C)CCC=C(C)C (stereo not shown) [Nerolidol] | 4.68 |
| COC(=O)c1ccccc1O [Methyl salicylate] | 2.3 |
| CC1=CCC2CC1C2(C)C (stereo not shown) [Alfa-pinene] | 4.37 |
| C=C1C2CCC(C2)C1(C)C (stereo not shown) [Camphene] | 4.24 |
| CC12CCC(CC1)C(C)(C)O2 [Cineol] | 2.7 |
| CC12CCC(CC1=O)C2(C)C (stereo not shown) [Camphor] | 2.55 |
| CC(C)=C1CC[C@@H](C)CC1=O [Pulegone] | 3.08 |
| Citronella | 3.53 |
| C=C(C)[C@H]1CC=C(C)CC1 [Limonene] | 2.38 |
| CC1=CCC(O)(C(C)C)CC1 (stereo not shown) [Terpinen-4-ol] | 3.26 |
| Cc1ccc(C(C)C)c(O)c1 [Thymol] | 3.28 |
| CC(C)=CCC[C@](C)(O)C1CC=C(C)CC1 (stereo partly shown) [Bisabolol] | 5.07 |
| C=CC(C)(O)CCC=C(C)C (stereo not shown) [Linalool] | 2.65 |
| C=C1CC/C=C(\C)CC[C@@H]2[C@@H]1CC2(C)C [Beta-caryophyllene] | 4.72 |
| C=CC(=C)CCC=C(C)C [Myrcene] | 4.17 |
| C/C(=C\CO)CCC[C@H](C)CCC[C@H](C)CCCC(C)C [Phytol] | 7.04 |
